From US3989714A, “3-Phenylhydroindoles” (priority 1974, dated 1976)
“And” between values parts separate entries of the source, which are not always exact repeats. Identical values can stand only once. Counter-ions that a name gives are not always drawn.

Tests used:
[1] = system: Rhinovirus 2 (HGP); assay: Antiviral Activity, Solid Media (Herrmann modification of the Dulbecco technique), plaque suppression by disc, HeLa cells; format: cell-based; details: Rhinovirus 2 HGP adsorbed, Day 5, 100 mcg disc, virus 66 PFU/ml (Example 4), 970 PFU/ml (Example 7)
Text: (§1) Compounds of the present invention show antiviral activity in concentrations of 50 to 100 γ/ml when tested in liquid media using the procedure of Rightsel (Univ. of Mich. Med. Bull. 24:222-234 (1958)) and on solid media using the Herrmann modification of the Dulbecco Technique (Proc. Nat. Acad. Sci., Wash. 38:747-752 (1952); Proc. Soc. Exp. Bio., N.Y., 103: 625-628 (1960)).
(§2) The procedure for the Herrmann modification used is as follows:
(§3) TEST NAME: Antiviral Activity, Solid Media
(§4) PURPOSE: The determination of toxicity and antiviral activity
(§5) of experimental compounds in normal and cancer cell
(§6) lines as measured by plaque suppression in solid media.
(§7) MATERIALS: Cell Line - Cancer
(§8) HeLa - Human carcinoma of the cervix
(§9) Virus - Rhinovirus 2 (HGP)
Growth Medium - Basal Medium Eagle (BME) containing 10 %
fetal bovine serum, penicillin (100 units/ml)
and streptomycin (100 mcg/ml).
Trypsin - (1-300) 0.25 % trypsin in Ca-free and Mg-free
Hanks' balanced salt solution (BSS).
(1) Rhinovirus: A 1:1 mixture of BME and
Medium 199. Contains 2 % fetal bovine serum
(FBS); 30 mM MgCl2; 0.3 % Tris; 30 gamma/ml
diethylaminoethyl (DEAE) dextran and 1 %
Wash Fluid - Phosphate-buffered saline (PBS) containing
Discs - Sterile Schleicher and Schuell 1/4"
penicillin assay discs.
Plates - Falcon plastic 60 × 15 mm dishes. […]
(§10) measured across the entire diameter (including disc).
The number of plaques on titration plates are counted to […]

[2] = in vitro; format: cell-based, Human; details: human, hela cells
Text: as §1
(§11) More particularly the protocol for the Rightsel procedure used is as follows:
(§12) ANTIVIRAL ACTIVITY TUBE METHOD
(§13) PURPOSE: The determination of toxicity and antiviral activity of
(§14) experimental compounds in normal and cancer cell lines
(§15) in vitro in tubes with liquid culture media.
(§16) MATERIALS: Cell Lines - cancer
(§17) HeLa - Human Carcinoma of the Cervix
(§18) Roller bottles are seeded with approximately 10^7 cells
(§19) in […] growth medium and rotated at 0.5 rpm on
(§20) the Bellco roller apparatus at 37° C until the cell
(§21) Trypsinization - Cells are resuspended in growth medium
(§22) at a concentration of […] HeLa cells/ml.
(§23) cell suspensions are gassed with CO2 to a pH of 6.8.
(§24) Sterile plastic tubes are seeded with 1.0 ml of cell
(§25) suspension and incubated in a stationary position for
(§26) two days (until cell sheet is confluent).
(§27) The compound is dissolved in distilled water at a maximum
(§28) concentration of 500 gamma/ml. Where necessary, NaOH,
(§29) HCl or ethanol is used to dissolve the material. The
(§30) pH of the final solution is adjusted as closely as
(§31) possible to pH 7.2. This stock solution is then
(§32) diluted with medium to contain appropriate concentrations
(§33) for 1 hour. Cytotoxicity and control tubes are rolled
(§34) with just 0.1 ml of medium. After a 1 hour adsorption
(§35) RECORDING: HeLa cell cultures are read every day, starting on day 3
(§36) and readings are continued until culture controls have
(§37) shown a non-specific cytopathic effect (CPE) in about
(§38) 5-6 days. WI-38 cultures are read every other day,
(§39) Compound cytoxicity is recorded as 0 - 4+, depending
(§40) on the degree and nature of the CPE. Viral CPE is
(§41) the cell sheet showing virus growth. Four tubes are
(§42) used for each concentration of compound and for each
(§43) concentration of virus dilution, and the four CPE
(§44) ratings within each group are averaged.

[3] = system: HeLa; assay: in vitro; format: cell-based, Human
Text: as §1, §11, §12, §13, §14, §15, §16, §17, §18, §19, §20, §21, §22, §23, §24, §25, §26, §27, §28, §29, §30, §31, §32, §33, §34, §35, §36, §37, §38, §39, §40, §41, §42, §43, §44

[4] = system: Rhinovirus 2 (HGP); assay: Antiviral activity tube method (Rightsel procedure), liquid media, HeLa cells; format: cell-based; details: for Antiviral: concentration at which active, Day 4: 20 TCID50 (Example 7)
Text: as §1, §11, §12, §13, §14, §15, §16, §17, §9
Growth Medium - Basal Medium Eagle (BME) with Earle's
salts, containing 10 % fetal bovine serum,
penicillin (100 units/ml.) and
streptomycin (100 mcg./ml.)
Maintenance Medium - A 1:1 mixture of BME and Medium
199; contains 2 % fetal bovine serum.
Trypsin - (1-300) 0.25 % in Ca-free and Mg-free
Hanks' balanced salt solution (BSS)
Roller Bottles - Bellco
Tubes - Sterile 16 × 150 mm plastic screw top
as §18, §19, §20, §21, §22, §23, §24, §25, §26, §27, §28, §29, §30, §31, §32
The virus is thawed rapidly at 37° C and diluted
in maintenance medium - to 10-^8 for titration and to an
estimated 10 - 100 Tissue Culture Infectious Dose50
PROCEDURE: The growth medium is decanted from the cell sheet in the
Adsorbed virus system: 0.1 ml of virus dilution is added
to each of the tubes and the tubes are rolled at 33°
as §33, §34
period, 0.9 ml of the appropriate dilution of the test
compound is added to each of the tubes and the tubes
are returned to the roller apparatus.
Unadsorbed virus system: 0.1 ml of the diluted virus and
0.9 ml of the diluted test compound are added simultaneously
to a tube and the tubes rotated at 33° C.
as §35, §36, §37, §38
starting with day 3, for 10-14 days.
as §40
also recorded as 0 - 4+, depending on the percent of
as §41, §42, §43, §44
To be considered active, a specific concentration of a test
compound must average 2 or more points below that of the
virus control. Actual TCID50 of virus used is
by method of Reed and Muench.

[5] = system: HeLa; assay: Cytotoxicity, solid media (disc), zones of cytotoxicity; format: cell-based, Human; details: Day 5, 100 mcg disc
Text: as §1, §2, §3, §4, §5, §6, §7, §8, §18
in 250-300 ml of growth medium and rotated at 0.5 rpm on
as §20
Cells are removed from the glass surface with trypsin.
The cells are resuspended in medium to a concentration
of 2.0 × 10^5 /ml. Falcon plastic 60 × 15 mm
seeded with 5.0 ml of cell suspension and incubated for
48 hours at 37° C in Pyrex baking dishes sealed with
Water-soluble compounds are prepared in distilled water
with the aid of HCl or NaOH as necessary. Solutions
are Millipore filtered. Water insoluble compounds are
Sterile Schleicher and Schuell 1/4" penicillin assay […]
as §10

| MNTC at 96 h [2] [µg/mL] | MCC at 120 h [2] [µg/mL] | Compound | Antiviral, disc ([1]; hydrochloride) | Cytotoxicity: concentration at which toxic, Day 5 [3] | toxic effect on the cells [3] | Antiviral: concentration at which active, Day 4 ([4]; Tube, HeLa, Rhinovirus 2 HGP nonadsorbed, virus 31 TCID50 (Example 13), 100 TCID50 (Example 4), active = averages 2 or more points below virus control, hydrochloride) | Antiviral: concentration at which inactive, Day 5 ([4]; Tube, HeLa, Rhinovirus 2 HGP nonadsorbed, Day 5, virus 31 TCID50 (Example 13), 100 TCID50 (Example 4)) [µg/mL] | Cytotoxicity, disc [5] | Antiviral, disc [1] | toxic effect of undetermined origin, day 5 [3] | Antiviral: concentration at which active, Day 4 ([4]; Tube, HeLa, Rhinovirus 2 HGP nonadsorbed, virus 31 TCID50 (Example 13), 100 TCID50 (Example 4), active = averages 2 or more points below virus control) | Antiviral: concentration at which active, Day 5 ([4]; Tube, HeLa, Rhinovirus 2 HGP nonadsorbed, Day 5, 20 TCID50, active = averages 2 or more points below virus control) | antiviral activity in the liquid system on 4th and 5th days ([4]; liquid system, both the 4th and 5th days of incubation) | antiviral activity after four days of incubation, liquid test ([4]; liquid test, four days of incubation) |
| --- | --- | --- | --- | --- | --- | --- | --- | --- | --- | --- | --- | --- | --- | --- |
| 100 | – | COc1ccc(C2CN(O)C3CCCCC23)cc1OC (stereo not shown) [Example 4, 3-(3,4-dimethoxyphenyl)hexahydro-1-hydroxyindoline hydrochloride] | inactive | 100-12.5 | undetermined toxic effect on the cells was observed | 100 µg/mL and 50 µg/mL | 6.25 | Nontoxic | – | – | – | – | – | – |
| 100 | 100 | COc1ccc(C2CN(O)C3(C)CCCCC23)cc1OC (stereo not shown) [Example 7, 3-(3,4-Dimethoxyphenyl)hexahydro-1-hydroxy-7a-methyl-indoline] | – | – | – | – | – | Nontoxic | inactive | very slight toxic effect | 100 µg/mL and 50 µg/mL | 100 µg/mL and 50 µg/mL | showed activity at two concentrations | – |
| 108 | – | COc1ccccc1C1C[N+]([O-])=C2CCCCC21.Cl (stereo not shown) [Example 13, 3,3a,4,5,6,7-hexahydro-3-(o-methoxyphenyl)-2H-indole 1-oxide hydrochloride] | – | 108-10.5 | undetermined toxic effect on the cells was observed | – | – | – | – | – | – | – | – | showed antiviral activity |
